According to ChEMBL document CHEMBL1130005, “Enantioselective synthesis and antiproliferative properties of an ilmofosine analog, 2'-(trimethylammonio)ethyl 3-(hexadecyloxy)-2-(methoxymethyl)propyl phosphate, on epithelial cancer cell growth” (J Med Chem, 1997):

Key:
Assay type in all cases: functional, cell-based
MCF7 [1] = experiment: Inhibition of proliferation of breast adenocarcinoma cell line MCF-7; details: Homo sapiens
A-427 [2] = experiment: Inhibition of large cell lung carcinoma (A427); details: Homo sapiens
A549 [3] = experiment: Inhibition of non-small-cell lung adenocarcinoma (A549); details: Homo sapiens
A-427 [4] = experiment: Inhibition of large cell lung carcinoma (A427) after 48-h treatment; details: Homo sapiens, A-427, 48 h
A549 [5] = experiment: Inhibition of non-small-cell lung adenocarcinoma (A549) after 48-h treatment; details: Homo sapiens, A549, 48 h
MCF7 [6] = experiment: Inhibition of proliferative breast adenocarcinoma cell line MCF-7 after 48-h treatment; details: Homo sapiens, MCF7, 48 h

IC50 (MCF7 [1]) | IC50 (A-427 [2]) | IC50 (A549 [3]) | IC50 (A-427 [4]) | IC50 (A549 [5]) | IC50 (MCF7 [6]) | SMILES
2 µM | 20 µM | 10 µM |  |  |  | CCCCCCCCCCCCCCCCSCC(COC)COP(=O)([O-])OCC[N+](C)(C)C (racemic) [ILMOFOSINE]
2 µM | > 20 µM | 10 µM |  |  |  | CCCCCCCCCCCCCCCCOC[C@@H](COC)COP(=O)([O-])OCC[N+](C)(C)C
 |  |  | 20 µM | 7.5 µM | 2 µM | CCCCCCCCCCCCCCCCOC[C@H](COC)COP(=O)([O-])OCC[N+](C)(C)C
